Data on 28 compounds can be found in patent US20260166039A1 (SCHRÖDINGER, INC., priority 2022, published 2026).

Molecules are shown by their SMILES. Where two headings read alike, the source gives them in different places.

One experiment has as its target T1, Wee1 kinase domain (Homo sapiens, UniProt P30291).
T1 construct: Wee1 kinase domain was purchased from Carna (catalog #05-177); purchased Carna 05-177
Put plainly: Wee1 Kinase Biochemical Assay (ADP-Glo). The following applies: 15 uM ATP. The gist of the method: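 Kinase domain (1 nM) incubated 4 h at 25 °C with 15 uM ATP and 2 ng/mL Poly(Lys,Tyr 4:1) in 40 mM Tris-HCl, 20 mM MgCl2, 0.1 mg/mL BSA, 2 mM DTT. ADP formation read by ADP-Glo luminescence; percent inhibition normalized to DMSO and saturating reference-inhibitor controls.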
On the technique in general: ADP-Glo turns the ADP formed in a reaction into a luminescent signal.

Experiment [1] relates to phosphorylation of Cdc2 Y15 (Wee1 substrate) in A427 cells. Put plainly: Phosphorylated Cdc2 MSD Electrochemiluminescence Assay. The format is cell-based. Conditions: Homo sapiens. The procedure:
Phosphorylated Cdc2 MSD Electrochemiluminescence Assay
The effect of Wee1 inhibitors on cellular phosphorylation of the Wee1 substrate Cdc2 was determined using the following protocol:
A total of 40,000 A427 cells in 100 uL culture medium (1640 medium+10% Fetal bovine serum+1% Penicillin-Streptomycin) were plated in 96-well cell culture plates. 3-fold serial dilutions of test compounds were prepared in completed PBS at 25× final concentration. After 20 hours, the plates were removed and 4 μL of each were added to the cells and incubated with shaking for 30 minutes at 37° C., 5% CO2. Each concentration was tested in duplicate. After a total 6 hours incubation, plates were removed and centrifuged for 5 minutes and 100 uL of supernatant from each well was removed. Cells were washed with 200 μL PBS and lysed with 50 μL MSD lysis buffer (Meso Scale Diagnostics) supplied with 1× complete ULTRA cocktail inhibitor (Roche).
To detect phosphorylation of Cdc2 Y15, 30 μL of capture antibody solution (CST catalog #9116S 1:200) was added into each well of the MSD plate (MSD catalog #L15XB-6), sealed and incubated at 4° C. with shaking (450 rpm) overnight. The antibody solution was removed, wells blocked with BSA solution and plates washed three times with PBST, followed by addition of 30 μl of cell lysate per well. After 2 hours of incubation, plates were washed three times with PBST. 30 μL of 1× detection antibody solution (CST catalog #4539S 1:200) was then added to each well and incubated for 1 hour. Plates were washed three times with PBST and 30 μL of 1× secondary antibody solution (MSD, catalog #:R32AB-1, 1:5000) was added to each well and incubated for 1 hour. Plates were washed three times with PBST and 150 μL of 1× Read Buffer T (MSD, catalog #R92TC-1) was added to each well of the MSD plate. The electrochemiluminescence signal was measured on a MESO SECTOR S600 plate reader. The percentage of remaining phosphorylated Cdc2 signal was calculated following the equation below.
[formula] • HC (high control): Cells treated with DMSO • Cpds: Cells treated with test compounds • LC (low control): Cells treated with positive control Wee1 inhibitor

The mark [2] stands for this setting: class symbols, 1 nM Wee1 enzyme, 4 hours at 25° C.
The mark [3] stands for this setting: A-427, class symbols, read-out: A427 pCDC2 MSD IC50.

T1 sequence (P30291 299-569 limits assumed): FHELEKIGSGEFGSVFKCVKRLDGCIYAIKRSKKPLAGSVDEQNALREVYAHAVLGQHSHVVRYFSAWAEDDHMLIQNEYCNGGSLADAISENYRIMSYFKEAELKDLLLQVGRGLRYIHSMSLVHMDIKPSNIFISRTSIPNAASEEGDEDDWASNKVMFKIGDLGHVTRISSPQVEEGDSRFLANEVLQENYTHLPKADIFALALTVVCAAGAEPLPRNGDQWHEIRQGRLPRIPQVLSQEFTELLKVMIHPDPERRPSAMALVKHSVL

By IC50 is commonly meant the concentration at which inhibition is half-maximal. Take `CN1CC[C@H](c2ccc(Nc3ncc4c(n3)N(c3cccc(N5CCOC5=O)n3)[C@@H]3CC(C)(C)OC[C@]43C)cc2)C1` (single isomer, unassigned) [Example 602]: the IC50 on Wee1 kinase domain (setting [2]) is below 10 nM; in experiment [1] (setting [3]), 100 to 1000 nM.

On to `CN1C[C@H]2C[C@@H]1CN2c1ccc(Nc2ncc3c(n2)N(c2cccc(N=S(C)(C)=O)n2)[C@@H]2CC(C)(C)OC[C@]32C)cc1F` (single isomer, unassigned) [Example 176], for which the IC50 was below 10 nM against Wee1 kinase domain (Wee1 kinase domain, ADP-Glo) and 100 to 1000 nM in experiment [1] (A-427, pCDC2 MSD).

`CC1(C)C[C@H]2N(c3cccc(C4(F)CNC4)n3)c3nc(Nc4ccc(N5CCOCC5)cc4)ncc3[C@@]2(C)CO1` (single isomer, unassigned) [Example 545]: the IC50 at Wee1 kinase domain (setting [2]) is below 10 nM; in experiment [1] (setting [3]), 100 to 1000 nM.

Take `CNCc1cccc(N2c3nc(Nc4ccc([C@@H]5CCNC5)cc4)ncc3[C@@]3(C)COC(C)(C)C[C@@H]23)n1` (single isomer, unassigned) [Example 454]: the IC50 against Wee1 kinase domain (setting [2]) was below 10 nM; in experiment [1] (setting [3]) it was 100 to 1000 nM.

Regarding `CNCc1cccc(N2c3nc(Nc4ccc([C@@H]5CCC(=O)N5C)nc4)ncc3[C@@]3(C)COC(C)(C)C[C@@H]23)n1` (single isomer, unassigned) [Example 96], the IC50 against Wee1 kinase domain (Wee1 kinase domain, ADP-Glo) was below 10 nM; in experiment [1] (A-427, pCDC2 MSD), 100 to 1000 nM.

Turning to `CN1CC[C@@H](c2ccc(Nc3ncc4c(n3)N(c3cccc(N5CCOC5=O)n3)[C@@H]3CC(C)(C)OC[C@]43C)cc2)C1` (single isomer, unassigned) [Example 605], the IC50 against Wee1 kinase domain (setting [2]) was below 10 nM; in experiment [1] (setting [3]), 100 to 1000 nM.

With `CNCc1cccc(N2c3nc(Nc4ccc(S(C)(=O)=O)cc4)ncc3[C@@]3(C)COC(C)(C)C[C@@H]23)n1` (single isomer, unassigned) [Example 34], the half-maximal inhibitory concentration (IC50) is below 10 nM against Wee1 kinase domain (Wee1 kinase domain, ADP-Glo) and 100 to 1000 nM in experiment [1] (A-427, pCDC2 MSD).

Regarding `Cc1cc(Nc2ncc3c(n2)N(c2cccc(N=S(C)(C)=O)n2)[C@@H]2CC(C)(C)OC[C@]32C)ccc1[C@H]1COCCN1` (single isomer, unassigned) [Example 120], the IC50 on Wee1 kinase domain (Wee1 kinase domain, ADP-Glo) was below 10 nM; in experiment [1] (A-427, pCDC2 MSD), below 100 nM.

Consider `C[C@H]1COC(=O)N1c1cccc(N2c3nc(Nc4ccc([C@H]5CCN(C)C5)nc4)ncc3[C@]3(C)COC(C)(C)C[C@H]23)n1` (single isomer, unassigned) [Example 262], for which the 50% inhibitory concentration (IC50) at Wee1 kinase domain (Wee1 kinase domain, ADP-Glo) is 100 to 1000 nM; in experiment [1] (A-427, pCDC2 MSD), 100 to 1000 nM.

For `CN1C[C@@H]2C[C@H]1CN2c1ccc(Nc2ncc3c(n2)N(c2cccc(N=S(C)(C)=O)n2)[C@@H]2CC(C)(C)OC[C@]32C)cc1` (single isomer, unassigned) [Example 124], the IC50 against Wee1 kinase domain (Wee1 kinase domain, ADP-Glo) is below 10 nM; in experiment [1] (A-427, pCDC2 MSD), below 100 nM.

Turning to `C[C@H]1COC(=O)N1c1cccc(N2c3nc(Nc4ccc(N5CCCN(C)CC5)cc4)ncc3[C@@]3(C)COC(C)(C)C[C@@H]23)n1` (single isomer, unassigned) [Example 299], the IC50 is below 10 nM on Wee1 kinase domain (Wee1 kinase domain, ADP-Glo) and 100 to 1000 nM in experiment [1] (A-427, pCDC2 MSD).

Turning to `C[C@H]1COC(=O)N1c1cccc(N2c3nc(Nc4ccc([C@H]5CCN(C)C5)nc4)ncc3[C@@]3(C)COC(C)(C)C[C@@H]23)n1` (single isomer, unassigned) [Example 263], the IC50 is below 10 nM on Wee1 kinase domain (Wee1 kinase domain, ADP-Glo) and below 100 nM in experiment [1] (A-427, pCDC2 MSD).

With `CN1CCC(c2cccc(N3c4nc(Nc5ccc(N6CCOCC6)cc5)ncc4[C@@]4(C)COC(C)(C)C[C@@H]34)n2)CC1` (single isomer, unassigned) [Example 533], the IC50 is below 10 nM against Wee1 kinase domain (setting [2]) and 100 to 1000 nM in experiment [1] (setting [3]).

With `CNCc1cccc(N2c3nc(Nc4ccc(N5CCC(F)(F)CC5)cc4)ncc3[C@@]3(C)COC(C)(C)C[C@@H]23)n1` (single isomer, unassigned) [Example 16], the concentration for half-maximal inhibition (IC50) against Wee1 kinase domain (Wee1 kinase domain, ADP-Glo) is below 10 nM; in experiment [1] (A-427, pCDC2 MSD) it was 100 to 1000 nM.

With `CN1CCC(c2cncc(Nc3ncc4c(n3)N(c3cccc(N=S(C)(C)=O)n3)[C@@H]3CC(C)(C)OC[C@]43C)c2)CC1` (single isomer, unassigned) [Example 485], the results for the half-maximal inhibitory concentration (IC50) (at Wee1 kinase domain (setting [2]); in experiment [1] (setting [3])) were below 10 nM and 100 to 1000 nM, respectively.

`CC1(C)CC2N(c3cccc([C@@H]4CCNC4)n3)c3nc(Nc4ccc(N5CCOCC5)cc4)ncc3C2(C)CO1` (stereo in doubt) [Example 539, (4bR,8aR)-4b,7,7-trimethyl-N-(4-morpholinophenyl)-9-(6-((R)-pyrrolidin-3-yl)pyridin-2-yl)-4b,5,7,8,8a,9-hexahydropyrano[3′,4′:4,5]pyrrolo[2,3-d]pyrimidin-2-amine]: the values for the IC50 (against Wee1 kinase domain (setting [2]); in experiment [1] (setting [3])) were below 10 nM and 100 to 1000 nM, respectively.

Regarding `C[C@H]1COC(=O)N1c1cccc(N2c3nc(Nc4ccc(N5C[C@@H]6C[C@H]5CN6C)c(F)c4)ncc3[C@@]3(C)COC(C)(C)C[C@@H]23)n1` (single isomer, unassigned) [Example 293], the half-maximal inhibitory concentration (IC50) at Wee1 kinase domain (Wee1 kinase domain, ADP-Glo) is below 10 nM; in experiment [1] (A-427, pCDC2 MSD), 100 to 1000 nM.

Consider `C[C@H]1COC(=O)N1c1cccc(N2c3nc(Nc4ccc(OC5CCNCC5)nc4)ncc3[C@@]3(C)COC(C)(C)C[C@@H]23)n1` (single isomer, unassigned) [Example 325], for which the IC50 against Wee1 kinase domain (Wee1 kinase domain, ADP-Glo) is below 10 nM; in experiment [1] (A-427, pCDC2 MSD), 100 to 1000 nM.

As for `CC1(C)C[C@H]2N(c3cccc(N=S(C)(C)=O)n3)c3nc(Nc4ccn(C5CC5)c(=O)c4)ncc3[C@@]2(C)CO1` (single isomer, unassigned) [Example 380], the 50% inhibitory concentration (IC50) against Wee1 kinase domain (Wee1 kinase domain, ADP-Glo) was below 10 nM; in experiment [1] (A-427, pCDC2 MSD), 100 to 1000 nM.

In the case of `C[C@H]1COC(=O)N1c1cccc(N2c3nc(Nc4ccc(N5CCN(C)CC5=O)cc4)ncc3[C@@]3(C)COC(C)(C)C[C@@H]23)n1` (single isomer, unassigned) [Example 271], the IC50 on Wee1 kinase domain (Wee1 kinase domain, ADP-Glo) was below 10 nM; in experiment [1] (A-427, pCDC2 MSD), 100 to 1000 nM.

Consider `CN1CCN(c2ccc(Nc3ncc4c(n3)N(c3ccn(C(F)(F)F)n3)[C@@H]3CC(C)(C)OC[C@]43C)cc2)CC1` (single isomer, unassigned) [Example 719], for which the IC50 against Wee1 kinase domain (setting [2]) was below 10 nM; in experiment [1] (setting [3]), 1000 to 10000 nM.

Consider `CNCc1cccc(N2c3nc(Nc4ccc([C@H]5CCOC5)cc4)ncc3[C@@]3(C)COC(C)(C)C[C@@H]23)n1` (single isomer, unassigned) [Example 40], for which the IC50 against Wee1 kinase domain (Wee1 kinase domain, ADP-Glo) was below 10 nM; in experiment [1] (A-427, pCDC2 MSD) it was below 100 nM.

On to `C[C@H]1COC(=O)N1c1cccc(N2c3nc(Nc4ccc(O[C@H]5CCN(C)C5)cc4)ncc3[C@@]3(C)COC(C)(C)C[C@@H]23)n1` (single isomer, unassigned) [Example 333], for which the IC50 against Wee1 kinase domain (Wee1 kinase domain, ADP-Glo) is below 10 nM; in experiment [1] (A-427, pCDC2 MSD), 100 to 1000 nM.

As for `CN1CC[C@@H]2CN(c3ccc(Nc4ncc5c(n4)N(c4cccc(N=S(C)(C)=O)n4)[C@@H]4CC(C)(C)OC[C@]54C)cc3)C[C@@H]21` (single isomer, unassigned) [Example 502], the IC50 against Wee1 kinase domain (setting [2]) is below 10 nM; in experiment [1] (setting [3]), below 100 nM.

In the case of `CN1CCC(n2cc(Nc3ncc4c(n3)N(c3cccc(N=S(C)(C)=O)n3)[C@H]3CC(C)(C)OC[C@@]43C)cn2)CC1` (single isomer, unassigned) [Example 101], the IC50 at Wee1 kinase domain (Wee1 kinase domain, ADP-Glo) lay within 100 to 1000 nM; in experiment [1] (A-427, pCDC2 MSD), 1000 to 10000 nM.

`CN1C[C@@H]2C[C@H]1CN2c1ccc(Nc2ncc3c(n2)N(c2cccc(N4CCOC4=O)n2)[C@@H]2CC(C)(C)OC[C@]32C)cc1` (single isomer, unassigned) [Example 595]: the 50% inhibitory concentration (IC50) against Wee1 kinase domain (setting [2]) was below 10 nM; in experiment [1] (setting [3]), 100 to 1000 nM.

`CN1CC[C@H](Oc2ccc(Nc3ncc4c(n3)N(c3cccc(N5CCCC5=O)n3)[C@@H]3CC(C)(C)OC[C@]43C)cc2)C1` [Example 618, 1-(6-((4bR,8aR)-4b,7,7-trimethyl-2-((4-(((S)-1-methylpyrrolidin-3-yl)oxy)phenyl)amino)-4b,7,8,8a-tetrahydropyrano[3′,4′:4,5]pyrrolo[2,3-d]pyrimidin-9(5H)-yl)pyridin-2-yl)pyrrolidin-2-one]: the results for the half-inhibitory concentration (IC50) (against Wee1 kinase domain (setting [2]); in experiment [1] (setting [3])) were below 10 nM and below 100 nM, respectively.

On to `C[C@@H]1COC(=O)N1c1cccc(N2c3nc(Nc4ccc(N5CCN(C)CC5)cc4)ncc3[C@@]3(C)COC(C)(C)C[C@@H]23)n1` (single isomer, unassigned) [Example 589], for which the half-inhibitory concentration (IC50) on Wee1 kinase domain (setting [2]) was below 10 nM; in experiment [1] (setting [3]) it was 100 to 1000 nM.
